Assay results as given in patent publication US20250221920A1, “Antioxidant Compositions” (THE BOOTS COMPANY PLC, priority 2022, published 2025).

Test: Total Antioxidant Capacity (TAC) assay, Cell Biolabs kit, copper ion reagent, absorbance at 490 nm
Type: biochemical
Details: triplicate
Procedure: Total antioxidant capacity (TAC) was determined using a kit (Cell Biolabs, Inc) as follows; the test samples were diluted in water and a buffer to reach a final antioxidant agent to buffer ratio ranging from 1:1 to 1:1,000,000. 20 ul of test sample or control (ascorbic acid or green tea) were added to the wells of 96 well plate, followed by 180 μL of 1X Reaction Buffer (provided with the kit). The absorbance of the reaction mix in each well was measured at 490 nm to get an initial reading. 50 μL of the 1X Copper Ion Reagent (provided with the kit) were added to each well to initiate the reaction. The reaction was allowed to carry on for 5 minutes on an orbital shaker and 50 μL of 1X Stop Solution (provided with the kit) added to each well to terminate the reaction. The colour change was assessed using a plate reader at 490 nm.
The stronger the colour change at the end of the reaction, the higher the spectrophotometric value, and the higher the antioxidant capacity of the antioxidant agents.
21 antioxidant compounds were tested in triplicate at antioxidant: buffer ratios ranging from 1:1 to 1:1,000,000.
The actual TAC of each of these compounds was calculated using the TAC assay described above, and compared with the predicted values to determine the % difference in TAC.

**Q.** What does the source list for Dimethylmethylmethoxy chromanol?
**A.** Total Antioxidant Capacity (TAC) (Antioxidant:Buffer 1:1 (concentration 1)): 1.839; Total Antioxidant Capacity (TAC) (Antioxidant:Buffer 1:10 (concentration 0.1)): 1.807; Total Antioxidant Capacity (TAC) (Antioxidant:Buffer 1:100 (concentration 0.01)): 1.824
